Counter-ions that a name gives are not always drawn. Like-named read-outs stand apart in the source and are kept apart here.

For one experiment, the system named is ECHCG. It is filed as in vivo, Echinochloa crus-galli. As for the experimental part: (§1) Seeds or nutlets of the desired test plant species were planted in a soil matrix prepared by mixing a loam or sandy loam soil (e.g., 28.6 percent silt, 18.8 percent clay, and 52.6 percent sand, with a pH of about 5.8 and an organic matter content of about 1.8 percent) and calcareous grit in an 80 to 20 ratio. The soil matrix was contained in plastic pots with a volume of 1 quart and a surface area of 83.6 square centimeters (cm^2). […] The plants were grown for 8-22 days in a greenhouse with an approximate 14 hour (h) photoperiod which was maintained at about 29° C. during the day and 26° C. during the night. Nutrients (Peters Excel® 15-5-15 5-Ca 2-Mg and iron chelate) were applied in the irrigation solution as needed and water was added on a regular basis. Supplemental lighting was provided with overhead metal halide 1000-Watt lamps as necessary. The plants were employed for testing when they reached the first through fourth true leaf stage.
(§2) Treatments consisted of the acid or esters of 4-amino-3-chloro-6-(4-chloro-2-fluoro-3-methoxyphenyl)-5-fluoropyridine-2-carboxylic acid (Compound A), each formulated as an SC (suspension concentrate), and various insecticidal components alone and in combination. Forms of compound A were applied on an acid equivalent basis.
(§3) For treatments comprised of formulated compounds, measured amounts of compounds were placed individually in 25 mL glass vials and diluted in a volume of 1.25% volume per volume (v/v) Agri-Dex® crop oil concentrate to obtain 12× stock solutions. […] Application solutions were prepared by adding an appropriate amount of each stock solution (e.g., 1 mL) and diluted to the appropriate final concentrations with the addition of […] of an aqueous mixture of 1.25% (v/v) crop oil concentrate so that the final spray solutions contained 1.25+/−0.05% (v/v) crop oil concentrate.
(§4) As required, additional water and/or 97:3 v/v acetone/DMSO was added to individual application solutions so that the final acetone and DMSO concentrations of the application solutions being compared were 8.1% and 0.25%, respectively.
(§5) All stock solutions and applications solutions were visually inspected for compound compatibility prior to application. Spray solutions were applied to the plant material with an overhead Mandel track sprayer equipped with 8002E nozzles calibrated to deliver 187 L/ha over an application area of 0.503 square meters (m^2) at a spray height of 18 to 20 inches (46 to 50 cm) above average plant canopy height. Control plants were sprayed in the same manner with the solvent blank.
(§6) The treated plants and control plants were placed in a greenhouse as described above and watered by sub-irrigation to prevent wash-off of the test compounds. After approximately 3 weeks, the condition of the test plants as compared to that of the untreated plants was determined visually and scored on a scale of 0 to 100 percent where 0 corresponds to no injury or growth inhibition and 100 corresponds to complete kill.
(§7) Colby's equation was used to determine the herbicidal effects expected from the mixtures (Colby, S. R. Calculation of the synergistic and antagonistic response of herbicide combinations. Weeds 1967, 15, 20-22.).
(§8) The following equation was used to calculate the expected activity of mixtures containing two active ingredients, A and B: Expected=A+B−(A×B/100)

In another experiment the test system is BRAPP. Kind of experiment: Postemergence foliar-applied weed control, direct-seeded rice (greenhouse). It is filed as in vivo, Brachiaria platyphylla.
Source text: (§9) Seeds or nutlets of the desired test plant species were planted in a soil matrix prepared by mixing a loam or sandy loam soil (e.g., 28.6 percent silt, 18.8 percent clay, and 52.6 percent sand, with a pH of about 5.8 and an organic matter content of about 1.8 percent) and calcareous grit in an 80 to 20 ratio. The soil matrix was contained in plastic pots with a volume of 1 quart and a surface area of 83.6 square centimeters (cm^2). When required to ensure good germination and healthy plants, a fungicide treatment and/or other chemical or physical treatment was applied. The plants were grown for 8-22 days in a greenhouse with an approximate 14 hour (h) photoperiod which was maintained at about 29° C. during the day and 26° C. during the night. Nutrients (Peters Excel® 15-5-15 5-Ca 2-Mg and iron chelate) were applied in the irrigation solution as needed and water was added on a regular basis. Supplemental lighting was provided with overhead metal halide 1000-Watt lamps as necessary. The plants were employed for testing when they reached the first through fourth true leaf stage.
as §2
(§10) Treatment requirements were calculated based upon the rates being tested, the concentration of active ingredient or acid equivalent in the formulation, and a 12 milliliter (mL) application volume at a rate of 187 liters per hectare (L/ha).
as §3, §4, §5, §6, §7, §8

Another experiment relates to IPOHE. It is filed as in vivo, Ipomoea hederacea. The method, then: as §1, §2, §3, §4, §5, §6, §7, §8
In the next experiment the test system is DIGSA. It is filed as in vivo, Digitaria sanguinalis. The method, then:
as §1, §2, §3, §4, §5, §6, §7, §8

In a further experiment the test system is LEFCH. Kind of experiment: whole plant or invertebrate. It is filed as in vivo, Leptochloa chinensis. The method, then:
as §1, §2, §3, §4, §5, §6, §7, §8

The test system of a further experiment is ECHCO. The experiment in a line: Postemergence foliar-applied weed control, direct-seeded rice (greenhouse). It is filed as in vivo, Echinochloa colonum. As for the experimental part:
as §1, §2, §3, §4, §5, §6, §7, §8

The subject of the next experiment is LEFFA. Described as above. It is filed as in vivo, Leptochloa fascicularis.
Source text: as §9, §2, §10, §3, §4, §5, §6, §7, §8

The subject of another experiment is CYPIR. It is filed as in vivo, Cyperus iria.
Source text: as §9, §2, §10, §3, §4, §5, §6, §7, §8

As for `N#Cc1nn(-c2c(Cl)cc(C(F)(F)F)cc2Cl)c(N)c1[S+]([O-])C(F)(F)F` [Fipronil, 5-amino-[2,6-dichloro-4-(trifluoromethyl)phenyl]-4-[(1R,S)-(trifluoromethyl)sulfinyl]-1H-pyrazole-3-carbonitrile, reference compound], the “Visual Weed Control (%) - 20 DAA ECHCG Obs” value in the experiment on ECHCG (50 g ai/ha alone) is 0%. For the same compound, the “Visual Weed Control (%) - 20 DAA BRAPP Obs” value in the experiment with BRAPP (50 g ai/ha alone) is given as 0%.

In the case of `CN(C)C(CSC(N)=O)CSC(N)=O` [Cartap Hydrochloride, S,S′-(2-dimethylaminotrimethylene)bis(thiocarbamate), reference compound], the figures for the “Visual Weed Control (%) - 22 DAA IPOHE Obs” value in the experiment with IPOHE (250 g ai/ha alone) and in the experiment with IPOHE (500 g ai/ha alone) were 10% and 0%, respectively. Besides, the “Visual Weed Control (%) - 22 DAA ECHCG Obs” value with ECHCG (250 g ai/ha alone) and with ECHCG (500 g ai/ha alone) was 0% in each case.

For the compound `CC1(C)C(C=C(Cl)Cl)C1C(=O)OC(C#N)c1cccc(Oc2ccccc2)c1` (racemic) [Cypermethrin, (RS)-α-cyano-3-phenoxybenzyl(1RS)-cis-trans-3-(2,2-dichlorovinyl)-2,2-dimethylcyclopropanecarboxylate, reference compound], the “Visual Weed Control (%) - 22 DAA IPOHE Obs” value with IPOHE (7.5 g ai/ha alone), in the experiment on IPOHE (22.5 g ai/ha alone) and with IPOHE (60 g ai/ha alone) was 0% in each case. Besides, the “Visual Weed Control (%) - 22 DAA ECHCG Obs” value in the experiment on ECHCG (7.5 g ai/ha alone), in the experiment on ECHCG (22.5 g ai/ha alone) and with ECHCG (60 g ai/ha alone) was 0% in each case. Moreover, the “Visual Weed Control (%) - 21 DAA DIGSA Obs” value with DIGSA (15 g ai/ha alone), with DIGSA (30 g ai/ha alone) and with DIGSA (60 g ai/ha alone) was 0% in each case. The pest or weed control at […] with LEFCH (Dinebra chinensis, post-emergence, 528 h, 7.5 g ai/ha alone, read-out: Visual Weed Control (%) - 22 DAA LEFCH Obs) turned out to be 0%. The pest or weed control at 22.5 g/ha in the experiment on LEFCH (Dinebra chinensis, post-emergence, 528 h, 22.5 g ai/ha alone, read-out: Visual Weed Control (%) - 22 DAA LEFCH Obs) came to 0%. For the same compound, the pest or weed control at 60 g/ha in the experiment with LEFCH (Dinebra chinensis, post-emergence, 528 h, 60 g ai/ha alone, read-out: Visual Weed Control (%) - 22 DAA LEFCH Obs) is 0%.

Turning to `CCOP(=S)(OCC)Oc1nc(Cl)c(Cl)cc1Cl` [Chlorpyrifos, O,O-diethyl O-3,5,6-trichloro-2-pyridyl phosphorothioate], the entries for the “Visual Weed Control (%) - 20 DAA IPOHE Obs” value in the experiment with IPOHE (180 g ai/ha alone), with IPOHE (360 g ai/ha alone) and in the experiment on IPOHE (720 g ai/ha alone) were 10%, 10% and 0%, respectively. Further, the “Visual Weed Control (%) - 20 DAA ECHCG Obs” value with ECHCG (180 g ai/ha alone), in the experiment with ECHCG (360 g ai/ha alone) and in the experiment on ECHCG (720 g ai/ha alone) was 0% in each case. The “Visual Weed Control (%) - 20 DAA ECHCO Obs” value with ECHCO (180 g ai/ha alone), in the experiment on ECHCO (360 g ai/ha alone) and with ECHCO (720 g ai/ha alone) was 0% throughout. For the same compound, the “Visual Weed Control (%) - 20 DAA DIGSA Obs” value in the experiment on DIGSA (180 g ai/ha alone), with DIGSA (360 g ai/ha alone), in the experiment on DIGSA (500 g ai/ha alone) and with DIGSA (720 g ai/ha alone) was 0% throughout. For the same compound, the “Visual Weed Control (%) - 22 DAA DIGSA Obs” value in the experiment on DIGSA (180 g ai/ha alone), in the experiment on DIGSA (360 g ai/ha alone) and in the experiment with DIGSA (720 g ai/ha alone) was 0% in each case. The “Visual Weed Control (%) - 22 DAA LEFFA Obs” value with LEFFA (180 g ai/ha alone), in the experiment with LEFFA (360 g ai/ha alone) and in the experiment with LEFFA (720 g ai/ha alone) was 0% in each case. For the same compound, the “Visual Weed Control (%) - 20 DAA BRAPP Obs” value with BRAPP (180 g ai/ha alone), with BRAPP (360 g ai/ha alone) and in the experiment with BRAPP (720 g ai/ha alone) was 0% in each case. For the same compound, the “Visual Weed Control (%) - 20 DAA LEFCH Obs” value with LEFCH (180 g ai/ha alone), in the experiment with LEFCH (360 g ai/ha alone), with LEFCH (500 g ai/ha alone) and in the experiment with LEFCH (720 g ai/ha alone) was 0% throughout. Further, the pest or weed control at 720 g/ha in the experiment on LEFCH (Dinebra chinensis, post-emergence, 528 h, 720 g ai/ha alone, read-out: Visual Weed Control (%) - 22 DAA LEFCH Obs) was found to be 5%.

As to `COP(=O)(NC(C)=O)SC` (stereo not shown) [Acephate, O,S-dimethyl acetylphosphoramidothioate], the “Visual Weed Control (%) - 21 DAA IPOHE Obs” value with IPOHE (280 g ai/ha alone) worked out at 10%. The “Visual Weed Control (%) - 21 DAA BRAPP Obs” value in the experiment with BRAPP (140 g ai/ha alone), in the experiment with BRAPP (280 g ai/ha alone) and with BRAPP (560 g ai/ha alone) was 0% each time. Besides, the “Visual Weed Control (%) - 21 DAA CYPIR Obs” value in the experiment on CYPIR (140 g ai/ha alone), with CYPIR (280 g ai/ha alone) and in the experiment on CYPIR (560 g ai/ha alone) was 0% throughout.

These data come from patent US9237747B2, “Herbicidal compositions comprising 4-amino-3-chloro-5-fluoro-6-(4-chloro-2-fluoro-3-methoxyphenyl) pyridine-2-carboxylic acid or a derivative thereof and insecticides” (priority 2013, dated 2016).
